Assay results published in patent US4175081A, “5-Substituted thiadiazole ureas” (priority 1977, dated 1979).

Legend:
[1] = tested on: Turnip (TP); test: Pre-emergence herbicide test; format: in vivo, Brassica sp.; conditions: Brassica rapa, pre-emergence, 336 h, two weeks after treatment
Method in brief: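 Turnip (Brassica sp.) seeds were surface sown in 3' plastic pots of potting soil, covered with a thin layer of screened soil, and sub-irrigated in greenhouse trays. Pots were seeded one day ahead of treatment, sprayed pre-emergence under a hood with a fixed nozzle and moving belt, then kept in the greenhouse.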

[2] = tested on: Yellow foxtail grass (YF); test: Post-emergence herbicide test; format: in vivo, Setaria glauca; conditions: Setaria, 336 h, two weeks after treatment
Method in brief: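 Potted seedlings grown in greenhouse, planting staggered to reach the target stage together, then sprayed post-emergence at 8 lbs actual compound/acre in 38 gallons/acre (4 lbs/acre formulations also prepared). Sub-irrigated afterwards. Injury or control rated visually two weeks after treatment.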

[3] = tested on: Barnyard grass (BG); test: Post-emergence herbicide test; format: in vivo; conditions: Echinochloa crus-galli, 336 h, two weeks after treatment
Method in brief: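 Greenhouse pot-grown barnyard grass seedlings sprayed post-emergence at 8 lbs active compound per acre (some at 4 lbs/acre) in 38 gallons per acre, then sub-irrigated. Injury or control rated visually two weeks after treatment.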

[4] = tested on: Barnyard grass (BG); test: Pre-emergence herbicide test; format: in vivo; conditions: Echinochloa crus-galli, 336 h, two weeks after treatment
Method in brief: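 Barnyard grass surface-seeded in potting soil and sprayed pre-emergence one day after seeding, at 8 or 4 lb compound/acre in 38 gal/acre spray volume. Pots kept in greenhouse with sub-irrigation only; injury or control rated visually two weeks after treatment.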

[5] = tested on: Corn (CN); test: Post-emergence herbicide test; format: in vivo; conditions: Zea mays, 336 h, two weeks after treatment
Method in brief: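 Greenhouse seedlings grown in potting soil and sprayed post-emergence at 8 lbs compound/acre (formulations also made for 4 lbs/acre) in 38 gallons/acre spray volume. Watering by sub-irrigation only. Injury or control rated visually two weeks after treatment.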

[6] = tested on: Cotton (CT); test: Post-emergence herbicide test; format: in vivo, Gossypium hirsutum var. DPL smooth leaf; conditions: Gossypium hirsutum, post-emergence, 336 h, two weeks after treatment
Method in brief: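 Cotton (Gossypium hirsutum var. DPL smooth leaf) was grown in 3' plastic pots of potting soil, four seeds per pot, planted at a depth equal to the seed diameter and watered by sub-irrigation. At the stage of expanded cotyledons with the first true leaf 1' long, plants were sprayed post-emergence in a hood with a fixed nozzle over a moving belt. Percent control was rated visually two weeks later.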

[7] = tested on: Johnson grass (JG); test: Pre-emergence herbicide test; format: in vivo, Sorgum helepense; conditions: Sorghum halepense, 336 h, two weeks after treatment
Method in brief: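 Pots seeded one day before spraying; compound applied pre-emergence at 8 lbs/acre (or 4 lbs/acre) in 38 gallons/acre spray volume. Sub-irrigated in greenhouse; injury/control rated visually two weeks after treatment.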

[8] = tested on: Johnson grass (JG); test: Post-emergence herbicide test; format: in vivo, Sorgum helepense; conditions: Sorghum halepense, 336 h, two weeks after treatment
Method in brief: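 Greenhouse pot-grown seedlings sprayed post-emergence at 8 lbs compound per acre (some at 4 lbs/acre) in 38 gallons per acre spray volume. Sub-irrigated thereafter. Injury/control rated visually two weeks after treatment.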

[9] = tested on: Crabgrass (CG); test: Post-emergence herbicide test; format: in vivo, Digitaria sanquinalis; conditions: Digitaria sanguinalis, post-emergence, 336 h, two weeks after treatment
Method in brief: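 Crabgrass (Digitaria sanquinalis) was surface seeded individually in 3' plastic pots of potting soil, covered with screened soil, and watered by sub-irrigation in greenhouse trays. Planting was staggered so seedlings reached the target stage together. Post-emergence sprays were applied in a hood with a removable belt and fixed nozzle, and control was visually rated two weeks after treatment.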

[10] = tested on: Crabgrass (CG); test: Pre-emergence herbicide test; format: in vivo, Digitaria sanquinalis; conditions: Digitaria sanguinalis, pre-emergence, 336 h, two weeks after treatment
Method in brief: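 Crabgrass (Digitaria sanquinalis) was surface seeded in 3' plastic pots of potting soil, covered with screened soil, and watered by sub-irrigation in greenhouse trays. Pots were seeded one day before spraying in a hood with a moving belt and fixed nozzle. Plants stayed in the greenhouse on sub-irrigation, and pre-emergence control was rated visually two weeks after treatment.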

[11] = tested on: variety of crops and weed species; test: Pre- and post-emergence herbicide tests, overall assessment of Tables III-VI; format: in vivo; conditions: data of Tables III-VI
Method in brief: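 Crops and weeds grown in potting soil were sprayed at 8 lbs. compound per acre in 38 gallons per acre, pre-emergence pots seeded one day before treatment. Injury or control was visually rated two weeks after treatment.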

[12] = tested on: Amaranth pigweed (PW); test: Pre-emergence herbicide test; format: in vivo, Amaranthus retroflexus; conditions: 336 h, two weeks after treatment
Method in brief: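 Pigweed was surface-seeded in potted soil one day before spraying at 8 lbs compound per acre, or 4 lbs/acre, in 38 gallons per acre. Pots were kept in the greenhouse with sub-irrigation only; injury or control was rated visually two weeks after treatment.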

[13] = tested on: Turnip (TP); test: Post-emergence herbicide test; format: in vivo, Brassica sp.; conditions: Brassica rapa, post-emergence, 336 h, two weeks after treatment
Method in brief: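 A greenhouse post-emergence herbicide test on turnip. Seeds were sown on the surface of potting soil in 3' plastic pots, lightly covered with screened soil and watered from below. Planting was timed so seedlings had 1 or 2 true leaves above the cotyledons at spraying, done in a hood with a fixed nozzle. Control or injury was scored by eye after two weeks.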

[14] = tested on: Corn (CN); test: Pre-emergence herbicide test; format: in vivo; conditions: Zea mays, 336 h, two weeks after treatment
Method in brief: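 Four corn seeds per pot, sown at seed-diameter depth one day before spraying, got soil surface treatment at 8 lbs/acre (4 lbs/acre formulations also prepared) in 38 gallons/acre. Pots were greenhouse-held with sub-irrigation only. Injury or control was scored visually two weeks after treatment.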

[15] = tested on: Cotton (CT); test: Pre-emergence herbicide test; format: in vivo, Gossypium hirsutum var. DPL smooth leaf; conditions: Gossypium hirsutum, 336 h, two weeks after treatment
Method in brief: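 Crop and weed species seeded one day before treatment, then sprayed pre-emergence at 8 lbs actual compound per acre (also 4 lbs/acre formulations) in 38 gallons per acre. Pots kept in greenhouse with sub-irrigation only; injury or control visually rated two weeks after treatment.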

[16] = tested on: Amaranth pigweed (PW); test: Post-emergence herbicide test; format: in vivo, Amaranthus retroflexus; conditions: 336 h, two weeks after treatment
Method in brief: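 Pot-grown pigweed was sprayed post-emergence at the 1–2 true-leaf stage with compound at rates equivalent to 8 lbs per acre (formulations also prepared for 4 lbs/acre) in 38 gallons per acre, using a hood with fixed nozzle. Plants were sub-irrigated in the greenhouse, and injury or control was rated visually two weeks after treatment.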

[17] = tested on: Bean (BN); test: Post-emergence herbicide test; format: in vivo, Phaseolus vulgaris var. Black Valentine; conditions: Phaseolus vulgaris, post-emergence, 336 h, two weeks after treatment
Method in brief: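 Snapbean (Phaseolus vulgaris var. Black Valentine) was tested post-emergence. Four seeds were sown in 3' plastic pots of potting soil at a depth equal to the seed diameter, then sub-irrigated in greenhouse trays. Planting dates were staggered so plants were sprayed once primary leaves had expanded, with the growing point at the primary leaf nodes.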

[18] = tested on: Bean (BN); test: Pre-emergence herbicide test; format: in vivo, Phaseolus vulgaris var. Black Valentine; conditions: Phaseolus vulgaris, 336 h, two weeks after treatment
Method in brief: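 Black Valentine bean was seeded in potting soil one day before spraying. Compound was applied pre-emergence at 8 lbs/acre (also 4 lbs/acre) in 38 gallons per acre. Plants were sub-irrigated and injury or control was rated visually after two weeks.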

[19] = tested on: Yellow foxtail grass (YF); test: Pre-emergence herbicide test; format: in vivo, Setaria glauca; conditions: Setaria, 336 h, two weeks after treatment
Method in brief: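 Seeds surface-sown in potting soil one day before spraying; compounds applied pre-emergence at 8 or 4 lbs/acre in 38 gallons/acre spray. Pots held in greenhouse with sub-irrigation only. Injury or control rated visually two weeks after treatment.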

CCN(C(=O)NC)c1nnc(C(F)(F)F)s1 [Example 37]
pest or weed control at 2241.7 g/ha ([1]; 2 lb/acre): 100%
pest or weed control at 4483.4 g/ha ([1]; 4 lb/acre): 100%
pest or weed control at 8966.8 g/ha ([1]; 8 lb/acre): 100%
pest or weed control ([2]; 2 lb/acre): 30%
pest or weed control at 4483.4 g/ha ([2]; 4 lb/acre): 50%
pest or weed control at 8966.8 g/ha ([2]; 8 lb/acre): 90%
pest or weed control at 2241.7 g/ha ([3]; 2 lb/acre): 20%
pest or weed control at 4483.4 g/ha ([3]; 4 lb/acre): 30%
pest or weed control at 8966.8 g/ha ([3]; 8 lb/acre): 90%
pest or weed control at 2241.7 g/ha ([4]; 2 lb/acre): 50%
pest or weed control at 4483.4 g/ha ([4]; 4 lb/acre): 60%
pest or weed control at 8966.8 g/ha ([4]; 8 lb/acre): 90%
pest or weed control ([5]; 2 lb/acre): 20%
pest or weed control at 4483.4 g/ha ([5]; 4 lb/acre): 80%
pest or weed control at 8966.8 g/ha ([5]; 8 lb/acre): 80%
pest or weed control at 2241.7 g/ha ([6]; 2 lb/acre): 100%
pest or weed control at 4483.4 g/ha ([6]; 4 lb/acre): 100%
pest or weed control at 8966.8 g/ha ([6]; 8 lb/acre): 100%
pest or weed control at 2241.7 g/ha ([7]; 2 lb/acre): 60%
pest or weed control at 4483.4 g/ha ([7]; 4 lb/acre): 70%
pest or weed control at 8966.8 g/ha ([7]; 8 lb/acre): 60%
pest or weed control ([8]; 2 lb/acre): 20%
pest or weed control at 4483.4 g/ha ([8]; 4 lb/acre): 30%
pest or weed control at 8966.8 g/ha ([8]; 8 lb/acre): 70%
pest or weed control ([9]; 2 lb/acre): 30%
pest or weed control at 4483.4 g/ha ([9]; 4 lb/acre): 40%
pest or weed control at 8966.8 g/ha ([9]; 8 lb/acre): 90%
pest or weed control ([10]; 2 lb/acre): 90%
pest or weed control at 4483.4 g/ha ([10]; 4 lb/acre): 90%
pest or weed control at 8966.8 g/ha ([10]; 8 lb/acre): 90%
herbicidal effectiveness / selectivity, in words [11]: extremely effective when applied to a variety of crops and weed species
pest or weed control at 2241.7 g/ha ([12]; 2 lb/acre): 90%
pest or weed control at 4483.4 g/ha ([12]; 4 lb/acre): 100%
pest or weed control at 8966.8 g/ha ([12]; 8 lb/acre): 100%
pest or weed control at 2241.7 g/ha ([13]; 2 lb/acre): 90%
pest or weed control at 4483.4 g/ha ([13]; 4 lb/acre): 90%
pest or weed control at 8966.8 g/ha ([13]; 8 lb/acre): 100%
pest or weed control at 2241.7 g/ha ([14]; 2 lb/acre): 30%
pest or weed control at 4483.4 g/ha ([14]; 4 lb/acre): 40%
pest or weed control at 8966.8 g/ha ([14]; 8 lb/acre): 50%
pest or weed control at 2241.7 g/ha ([15]; 2 lb/acre): 40%
pest or weed control at 4483.4 g/ha ([15]; 4 lb/acre): 40%
pest or weed control at 8966.8 g/ha ([15]; 8 lb/acre): 60%
pest or weed control at 2241.7 g/ha ([16]; 2 lb/acre): 90%
pest or weed control at 4483.4 g/ha ([16]; 4 lb/acre): 100%
pest or weed control at 8966.8 g/ha ([16]; 8 lb/acre): 100%
pest or weed control at 2241.7 g/ha ([17]; 2 lb/acre): 90%
pest or weed control at 4483.4 g/ha ([17]; 4 lb/acre): 100%
pest or weed control at 8966.8 g/ha ([17]; 8 lb/acre): 100%
pest or weed control at 2241.7 g/ha ([18]; 2 lb/acre): 80%
pest or weed control at 4483.4 g/ha ([18]; 4 lb/acre): 70%
pest or weed control at 8966.8 g/ha ([18]; 8 lb/acre): 90%
pest or weed control at 2241.7 g/ha ([19]; 2 lb/acre): 70%
pest or weed control at 4483.4 g/ha ([19]; 4 lb/acre): 80%
pest or weed control at 8966.8 g/ha ([19]; 8 lb/acre): 90%
